Experimental data taken from patent US20100317647A1 (priority 2009, published 2010).
pIC50: −log10 of the molar value.

Molecular target: human Cat S (Homo sapiens, UniProt P25774)
Experiment: Cathepsin enzyme inhibition assay (fluorogenic peptide substrate cleavage)
Assay type: biochemical
Details: human Cat S 1 nM; substrate Z-Val-Val-Arg-AMC 20 μM; pH 6.5; fluorescence over 20 minutes
Summary of the method: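 IC50 values derived from fluorescence increase (ex 360 nm, em 465 nm) monitored for 20 minutes after substrate addition. Enzyme held at 1 nM with 20 μM Z-Val-Val-Arg-AMC, in pH 6.5 potassium phosphate buffer containing DTT, EDTA and Triton X-100.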

human Cat S, sequence (P25774 115-331): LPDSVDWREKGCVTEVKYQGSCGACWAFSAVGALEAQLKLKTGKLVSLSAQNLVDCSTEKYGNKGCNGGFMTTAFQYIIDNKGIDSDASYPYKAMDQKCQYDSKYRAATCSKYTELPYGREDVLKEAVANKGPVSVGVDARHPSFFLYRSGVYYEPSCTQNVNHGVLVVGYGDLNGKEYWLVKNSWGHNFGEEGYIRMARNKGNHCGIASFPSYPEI

SMILES | pIC50
N#CC1(NC(=O)[C@@H]2C[C@@H](S(=O)(=O)c3ccc(Br)cc3C(F)(F)F)C[C@H]2OC2CCOCC2)CC1 (racemic) [Example 169, (1R,2R,4R) and (1S,2S,4S)-4-(4-Bromo-2-trifluoromethyl-benzenesulfonyl)-2-(tetrahydro-pyran-4-yloxy)-cyclopentanecarboxylic acid (1-cyano-cyclopropyl)-amide] | 8.91
CO[C@@H]1C[C@H](S(=O)(=O)c2ccc(-c3cnn(CCO)c3)cc2C(F)(F)F)C[C@H]1C(=O)NC1(C#N)CC1 (racemic) [Example 170, (1R,2R,4R) and (1S,2S,4S)-4-{4-[1-(2-Hydroxy-ethyl)-1H-pyrazol-4-yl]-2-trifluoromethyl-benzenesulfonyl}-2-methoxy-cyclopentanecarboxylic acid (1-cyano-cyclopropyl)-amide] | 9.23
CO[C@@H]1C[C@H](S(=O)(=O)c2ccc(-c3ccccc3)cc2C(F)(F)F)C[C@H]1C(=O)NC1(C#N)CC1 (racemic) [Example 171, (1R,2R,4R) and (1S,2S,4S)-2-Methoxy-4-(3-trifluoromethyl-biphenyl-4-sulfonyl)-cyclopentanecarboxylic acid (1-cyano-cyclopropyl)-amide] | 8.92
COCCn1cc(-c2ccc(S(=O)(=O)[C@H]3C[C@@H](OC)[C@H](C(=O)NC4(C#N)CC4)C3)c(C(F)(F)F)c2)cn1 (racemic) [Example 172, (1R,2R,4R) and (1S,2S,4S)-2-Methoxy-4-{4-[1-(2-methoxy-ethyl)-1H-pyrazol-4-yl]-2-trifluoromethyl-benzenesulfonyl}-cyclopentanecarboxylic acid (1-cyano-cyclopropyl)-amide] | 9.36
Cn1cc(-c2ccc(S(=O)(=O)[C@H]3C[C@@H](OC4CCOCC4)[C@H](C(=O)NC4(C#N)CC4)C3)c(C(F)(F)F)c2)cn1 (racemic) [Example 173, (1R,2R,4R) and (1S,2S,4S)-4-[4-(1-Methyl-1H-pyrazol-4-yl)-2-trifluoromethyl-benzenesulfonyl]-2-(tetrahydro-pyran-4-yloxy)-cyclopentanecarboxylic acid (1-cyano-cyclopropyl)-amide] | 9.66
Cc1cc(-c2ccc(S(=O)(=O)[C@H]3C[C@@H](OC4CCOCC4)[C@H](C(=O)NC4(C#N)CC4)C3)c(C(F)(F)F)c2)ccn1 (racemic) [Example 174, (1R,2R,4R) and (1S,2S,4S)-4-[4-(2-Methyl-pyridin-4-yl)-2-trifluoromethyl-benzenesulfonyl]-2-(tetrahydro-pyran-4-yloxy)-cyclopentanecarboxylic acid (1-cyano-cyclopropyl)-amide] | 9.77
N#CC1(NC(=O)[C@@H]2C[C@@H](S(=O)(=O)c3ccccc3C(F)(F)F)C[C@H]2OC2CCOCC2)CC1 (racemic) [Example 175, (1R,2R,4R) and (1S,2S,4S)-2-(Tetrahydro-pyran-4-yloxy)-4-(2-trifluoromethyl-benzenesulfonyl)-cyclopentanecarboxylic acid (1-cyano-cyclopropyl)-amide] | 9.32
CO[C@@H]1C[C@H](S(=O)(=O)c2ccc(N3CCOCC3)cc2C(F)(F)F)C[C@H]1C(=O)NC1(C#N)CC1 (racemic) [Example 176, (1R,2R,4R) and (1S,2S,4S)-2-Methoxy-4-(4-morpholin-4-yl-2-trifluoromethyl-benzenesulfonyl)-cyclopentanecarboxylic acid (1-cyano-cyclopropyl)-amide] | 8.83
CO[C@@H]1C[C@H](S(=O)(=O)c2ccc(N3CCN(C(C)C)CC3)cc2C(F)(F)F)C[C@H]1C(=O)NC1(C#N)CC1 (racemic) [Example 177, (1R,2R,4R) and (1S,2S,4S)-4-[4-(4-Isopropyl-piperazin-1-yl)-2-trifluoromethyl-benzenesulfonyl]-2-methoxy-cyclopentanecarboxylic acid (1-cyano-cyclopropyl)-amide] | 9.03
CO[C@@H]1C[C@H](S(=O)(=O)c2ccc(N3CCC(F)(F)CC3)cc2C(F)(F)F)C[C@H]1C(=O)NC1(C#N)CC1 (racemic) [Example 178, (1R,2R,4R) and (1S,2S,4S)-4-[4-(4,4-Difluoro-piperidin-1-yl)-2-trifluoromethyl-benzenesulfonyl]-2-methoxy-cyclopentanecarboxylic acid (1-cyano-cyclopropyl)-amide] | 9.05
COC(=O)Cn1cc(-c2ccc(S(=O)(=O)[C@H]3C[C@@H](OC)[C@H](C(=O)NC4(C#N)CC4)C3)c(C(F)(F)F)c2)cn1 (racemic) [Example 179, (4-{4-[(1R,3R,4R) and (1S,3S,4S)-3-(1-Cyano-cyclopropylcarbamoyl)-4-methoxy-cyclopentanesulfonyl]-3-trifluoromethyl-phenyl}-pyrazol-1-yl)-acetic acid methyl ester] | 9.52
N#CC1(NC(=O)[C@@H]2C[C@@H](S(=O)(=O)c3ccccc3Cl)C[C@H]2OCc2cc(F)c(Cl)cc2Cl)CC1 (racemic) [Example 180, (1R,2R,4R) and (1S,2S,4S)-4-(2-Chlorophenylsulfonyl)-N-(1-cyanocyclopropyl)-2-(2,4-dichloro-5-fluorobenzyloxy)cyclopentanecarboxamide] | 6.80
N#CC1(NC(=O)[C@@H]2C[C@@H](S(=O)(=O)c3ccc(Br)cc3C(F)(F)F)C[C@H]2OC2CCS(=O)(=O)CC2)CC1 (racemic) [Example 181, (1R,2R,4R) and (1S,2S,4S)-4-(4-Bromo-2-trifluoromethyl-benzenesulfonyl)-2-[(tetrahydro-1,1-dioxo-2H-thiopyran-4-yl)oxy]-cyclopentanecarboxylic acid (1-cyano-cyclopropyl)-amide] | 8.88
N#CC1(NC(=O)[C@@H]2C[C@@H](S(=O)(=O)c3ccc(Br)cc3C(F)(F)F)C[C@H]2OC2CCC2)CC1 (racemic) [Example 182, (1R,2R,4R) and (1S,2S,4S)-4-(4-Bromo-2-trifluoromethyl-benzenesulfonyl)-2-cyclobutoxy-cyclopentanecarboxylic acid (1-cyano-cyclopropyl)-amide] | 8.42
Cc1cc(-c2ccc(S(=O)(=O)[C@H]3C[C@@H](OC4CCS(=O)(=O)CC4)[C@H](C(=O)NC4(C#N)CC4)C3)c(C(F)(F)F)c2)ccn1 (racemic) [Example 183, (1R,2R,4R) and (1S,2S,4S)-2-[(tetrahydro-1,1-dioxo-2H-thiopyran-4-yl)oxy]-4-[4-(2-methyl-pyridin-4-yl)-2-trifluoromethyl-benzenesulfonyl]-cyclopentanecarboxylic acid (1-cyano-cyclopropyl)-amide] | 9.70
Cn1cc(-c2ccc(S(=O)(=O)[C@H]3C[C@@H](OC4CCS(=O)(=O)CC4)[C@H](C(=O)NC4(C#N)CC4)C3)c(C(F)(F)F)c2)cn1 (racemic) [Example 184, (1R,2R,4R) and (1S,2S,4S)-2-[(tetrahydro-1,1-dioxo-2H-thiopyran-4-yl)oxy]-4-[4-(1-methyl-1H-pyrazol-4-yl)-2-trifluoromethyl-benzenesulfonyl]-cyclopentanecarboxylic acid (1-cyano-cyclopropyl)-amide] | 9.80
CO[C@@H]1C[C@H](S(=O)(=O)c2ccc(-c3cnn(CC(=O)O)c3)cc2C(F)(F)F)C[C@H]1C(=O)NC1(C#N)CC1 (racemic) [Example 185, (4-{4-[(1R,3R,4R) and (1S,3S,4S)-3-(1-Cyano-cyclopropylcarbamoyl)-4-methoxy-cyclopentanesulfonyl]-3-trifluoromethyl-phenyl}-pyrazol-1-yl)-acetic acid] | 9.14
CO[C@@H]1C[C@H](S(=O)(=O)c2ccc(N3CCN(CC(F)(F)F)CC3)cc2C(F)(F)F)C[C@H]1C(=O)NC1(C#N)CC1 (racemic) [Example 193, (1R,2R,4R) and (1S,2S,4S)-2-Methoxy-4-{4-[4-(2,2,2-trifluoro-ethyl)-piperazin-1-yl]-2-trifluoromethyl-benzenesulfonyl}-cyclopentanecarboxylic acid (1-cyano-cyclopropyl)-amide] | 8.78
CO[C@@H]1C[C@H](S(=O)(=O)c2ccc(-c3cnn(CC(N)=O)c3)cc2C(F)(F)F)C[C@H]1C(=O)NC1(C#N)CC1 (racemic) [Example 194, (1R,2R,4R) and (1S,2S,4S)-4-[4-(1-Carbamoylmethyl-1H-pyrazol-4-yl)-2-trifluoromethyl-benzenesulfonyl]-2-methoxy-cyclopentanecarboxylic acid (1-cyano-cyclopropyl)-amide] | 9.15
N#CC1(NC(=O)[C@@H]2C[C@@H](S(=O)(=O)c3ccc(Br)cc3C(F)(F)F)C[C@H]2OC2CCCC2)CC1 (racemic) [Example 195, (1R,2R,4R) and (1S,2S,4S)-4-(4-Bromo-2-trifluoromethyl-benzenesulfonyl)-2-cyclopentyloxy-cyclopentanecarboxylic acid (1-cyano-cyclopropyl)-amide] | 9.04
CO[C@@H]1C[C@H](S(=O)(=O)c2ccc(N3CC(F)(F)C3)cc2C(F)(F)F)C[C@H]1C(=O)NC1(C#N)CC1 (racemic) [Example 206, (1R,2R,4R) and (1S,2S,4S)-4-[4-(3,3-Difluoro-azetidin-1-yl)-2-trifluoromethyl-benzenesulfonyl]-2-methoxy-cyclopentanecarboxylic acid (1-cyano-cyclopropyl)-amide] | 8.85
CO[C@@H]1C[C@H](S(=O)(=O)c2ccc(N3CCC(O)CC3)cc2C(F)(F)F)C[C@H]1C(=O)NC1(C#N)CC1 (racemic) [Example 207, (1R,2R,4R) and (1S,2S,4S)-4-[4-(4-Hydroxy-piperidin-1-yl)-2-trifluoromethyl-benzenesulfonyl]-2-methoxy-cyclopentanecarboxylic acid (1-cyano-cyclopropyl)-amide] | 9.05
Cc1cc(-c2ccc(S(=O)(=O)[C@H]3C[C@@H](OC4CCC4)[C@H](C(=O)NC4(C#N)CC4)C3)c(C(F)(F)F)c2)ccn1 (racemic) [Example 210, (1R,2R,4R) and (1S,2S,4S)-2-Cyclobutoxy-4-[4-(2-methyl-pyridin-4-yl)-2-trifluoromethyl-benzenesulfonyl]-cyclopentanecarboxylic acid (1-cyano-cyclopropyl)-amide] | 9.68
